Literature values in patent US8288391B2, “Pyrazinoylguanidine compounds for use as taste modulators” (Parion Sciences, Inc., priority 2007, dated 2012).

Target: T1, ENaC (Rattus norvegicus, UniProt P37089+P37090+P37091)
T1 construct: receptor cells in taste buds and some surrounding non-taste epithelia) through apical membrane ENaC; host or cells: rat in vivo: taste nerve (chorda tympani) response, with endogenous channel of lingual taste receptor cells
T1 sequence (P37089 1-698): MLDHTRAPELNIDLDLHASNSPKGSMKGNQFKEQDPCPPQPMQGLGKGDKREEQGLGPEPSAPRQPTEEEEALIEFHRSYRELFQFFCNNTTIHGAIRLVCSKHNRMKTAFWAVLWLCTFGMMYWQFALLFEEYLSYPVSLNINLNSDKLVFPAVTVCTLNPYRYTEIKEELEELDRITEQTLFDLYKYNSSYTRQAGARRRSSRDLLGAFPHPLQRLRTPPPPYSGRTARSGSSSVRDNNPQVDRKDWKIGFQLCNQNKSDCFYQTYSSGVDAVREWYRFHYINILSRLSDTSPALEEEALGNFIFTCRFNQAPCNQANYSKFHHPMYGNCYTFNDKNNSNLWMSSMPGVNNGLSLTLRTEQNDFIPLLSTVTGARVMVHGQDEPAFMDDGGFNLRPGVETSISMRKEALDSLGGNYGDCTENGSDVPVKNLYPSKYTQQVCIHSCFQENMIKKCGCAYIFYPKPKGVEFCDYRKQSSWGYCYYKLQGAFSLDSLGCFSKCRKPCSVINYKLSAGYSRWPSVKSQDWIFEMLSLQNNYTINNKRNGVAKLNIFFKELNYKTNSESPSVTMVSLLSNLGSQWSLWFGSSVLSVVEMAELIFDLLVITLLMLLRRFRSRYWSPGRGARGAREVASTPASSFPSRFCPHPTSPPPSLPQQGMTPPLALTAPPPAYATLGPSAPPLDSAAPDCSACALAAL
T1 sequence (P37090 1-638): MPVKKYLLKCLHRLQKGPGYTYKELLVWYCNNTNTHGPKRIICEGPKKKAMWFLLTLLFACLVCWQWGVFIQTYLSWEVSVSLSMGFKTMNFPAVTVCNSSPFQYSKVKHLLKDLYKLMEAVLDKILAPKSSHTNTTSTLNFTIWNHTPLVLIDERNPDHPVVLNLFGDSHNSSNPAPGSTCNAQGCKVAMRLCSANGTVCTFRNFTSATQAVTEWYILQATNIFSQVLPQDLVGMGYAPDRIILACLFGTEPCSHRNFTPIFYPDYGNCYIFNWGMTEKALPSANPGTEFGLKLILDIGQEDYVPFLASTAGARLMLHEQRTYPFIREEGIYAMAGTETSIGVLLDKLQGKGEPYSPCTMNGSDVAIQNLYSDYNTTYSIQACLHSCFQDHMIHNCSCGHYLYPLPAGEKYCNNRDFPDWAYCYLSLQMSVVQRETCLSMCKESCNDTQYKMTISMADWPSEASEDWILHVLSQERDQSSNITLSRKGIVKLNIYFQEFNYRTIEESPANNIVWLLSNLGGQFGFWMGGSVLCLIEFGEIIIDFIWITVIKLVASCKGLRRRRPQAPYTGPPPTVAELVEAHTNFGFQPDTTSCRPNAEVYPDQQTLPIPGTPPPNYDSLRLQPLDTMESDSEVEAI
T1 sequence (P37091 1-650): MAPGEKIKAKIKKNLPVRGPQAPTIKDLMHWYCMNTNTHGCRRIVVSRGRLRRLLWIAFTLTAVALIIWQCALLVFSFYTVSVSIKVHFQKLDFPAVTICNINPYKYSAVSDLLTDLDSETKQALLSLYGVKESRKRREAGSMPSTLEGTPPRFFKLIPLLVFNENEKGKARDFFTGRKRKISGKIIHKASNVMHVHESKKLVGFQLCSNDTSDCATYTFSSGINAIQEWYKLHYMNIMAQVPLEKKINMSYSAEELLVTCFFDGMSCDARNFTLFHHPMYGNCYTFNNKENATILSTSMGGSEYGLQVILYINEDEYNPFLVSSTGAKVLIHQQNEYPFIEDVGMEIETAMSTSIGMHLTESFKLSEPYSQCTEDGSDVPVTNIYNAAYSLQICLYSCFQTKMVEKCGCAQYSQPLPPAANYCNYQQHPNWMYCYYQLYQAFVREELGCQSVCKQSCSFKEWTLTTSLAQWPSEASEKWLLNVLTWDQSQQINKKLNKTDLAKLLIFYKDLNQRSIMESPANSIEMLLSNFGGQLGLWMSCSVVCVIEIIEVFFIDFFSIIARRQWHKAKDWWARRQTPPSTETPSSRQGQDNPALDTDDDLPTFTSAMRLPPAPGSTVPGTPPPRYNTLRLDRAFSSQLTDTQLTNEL
Conditions: rats; 100 mM NaCl; share of total taste response

- amiloride-sensitive part of the total response to NaCl: 75%-80%
SMILES: N=C(N)NC(=O)c1nc(Cl)c(N)nc1N [amiloride]
